# Where no end group is shown, it is not given here.
# Experiments:
# [1] = tested on: HCT116 cells; assay: Fluorescence microscopy of cell labeling; format: cell-based, human; conditions: HCT116 cells grown to high density; 1 h at 37 °C; medium without FCS; 100 μL of 10^-4-10^-5 M stock in 1 mL; after fixation
# Procedure: Human colorectal carcinoma HCT116 cells were seeded in culture plates (1,000,000–2,000,000 cells/well in 3 mL medium) containing glass coverslips and were allowed to grow for 48 h. The medium was replaced by 900 μL fresh medium (without FCS) and 100 μL 10^−4–10^−5 M sterilized stock solution of FITC-labeled-CaIX-P1 or fluorescein at the same concentration was added to the cells. The plates were incubated for 1 h at 37 °C. After incubation the cells were washed thrice with 1 mL ice cold PBS (pH 7.4). Subsequently the cells were fixed with 2% formaldehyde in PBS (pH 7.4) at […] for 20 min. This procedure was performed on ice. The cells were washed with ice cold PBS (1 × 600 μL, pH 7.4) and the cover slips were mounted on a slice with DAKO fluorescent medium. Cells were photographed using a Leica DM-RA2 fluorescence microscope. Digitalized figures were processed using standard imaging software (Adobe Photoshop 6.0/Illustrator 9.0).
# [2] = serum stability; rapid degradation by serum proteases; cited from earlier work
# [3] = tested on: HCT116 cells; format: binding, human; conditions: 48 h
# Procedure: (§1) 300,000 and 2,000,000 human colorectal carcinoma HCT116 and pancreatic carcinoma BxPC3 cells were cultivated in 6-well plates for 48 h. RPMI 1640 medium with 1% BSA was used for cell blocking. Thereafter, 1 mL RPMI 1640 medium containing about 1.0 × 10^6 cpm ^125I-labeled peptide (specific activity ~50 GBq/μmol) was added and cell incubation was carried out for various time periods (10-120 min). To characterize the specificity of radioligand binding, co-incubation with unlabeled CaIX-P1 at various concentrations (10^-4 to 10^-9 mol/L) was performed. After incubation the cells were washed with ice cold PBS and lysed with 0.5 mL NaOH 0.3 mol/L. The lysate was collected and the radioactivity was measured with a γ-counter ([…]; Berthold Technologies). Bound radioactivity, representing the amount of peptide accumulation on HCT116 cells, was calculated as percentage applied dose per 10^6 cells. Binding specificity was further determined using octreotide, HBP-1 and VA131 as negative control competitors at the same concentration as CaIX-P1. All binding and competition experiments were performed in serum free medium in order to avoid peptide degradation by serum proteases.
# [4] = tested on: HCT116 cells; assay: In vitro binding kinetics of 125I-CaIX-P1 at two cell densities; design: species or system human; conditions: 300,000 vs 2,000,000 cells cultivated 48 h; incubation 10-120 min; serum free medium; uptake as percent applied dose per 10^6 cells; p < 0.05
# Procedure: as §1
# [5] = tested on: BxPC3 cells; assay: In vitro binding kinetics of 125I-CaIX-P1 at two cell densities (negative control cells); design: species or system human; conditions: 300,000 vs 2,000,000 cells cultivated 48 h, incubation 10-120 min, serum free medium
# Procedure: as §1
compound,measurement,setting,value
O=C1OC2(c3ccc(O)cc3Oc3cc(O)ccc32)c2ccccc21 [fluorescein],fluorescence signal of cells,[1],strongly decreased signal to the background level
YNTNHVPLSPKY [CaIX-P1],half-life in serum,[2],about 25 min
same,IC50,[3],1000 to 5000 nM
"YNTNHVPLSPKY [^125I-CaIX-P1, CaIX-P1 radiolabeled with 125I using the chloramine T method]",binding of 125I-CaIX-P1 per 10^6 HCT116 cells with increasing cell density,[4],significantly increased binding
same,binding of 125I-CaIX-P1 on BxPC3 cells at different cell densities,[5],strongly decreased binding to the background level

# Reference: article PMC3497310, “Binding of the Phage Display Derived Peptide CaIX-P1 on Human Colorectal Carcinoma Cells Correlates with the Expression of Carbonic Anhydrase IX” (International Journal of Molecular Sciences, 2012)
